In patent publication US20260262643A1, “HERBICIDAL BENZOXAZINES” (FMC CORPORATION, priority 2022, published 2026):

Legend:
wheat [1] = assay: Test A preemergence; format: in vivo, Triticum aestivum
How it was run: (§1)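 Weeds and crops in loam–sand blend were sprayed preemergence onto soil or postemergence at 2–10 cm (one- to two-leaf stage). Test chemicals were in a non-phytotoxic solvent with surfactant. After 10 days in the greenhouse, injury was rated visually against untreated controls on a 0 (no effect) to 100 (complete control) scale.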

rice = assay: Test B flooded paddy test; format: in vivo, Oryza sativa; details: 250 g ai/ha, Flood, 13 days, 0 to 100 scale (0 no effect, 100 complete control)
How it was run: (§2)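 Species grown to 2-leaf stage; pots flooded 3 cm above soil and compound applied directly to paddy water, depth maintained throughout. After 13 days in greenhouse, plants visually rated against controls on 0–100 scale (0 no effect, 100 complete control); dash means no result.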

ryegrass, Italian [2] = assay: Test A preemergence; format: in vivo, Lolium multiflorum
How it was run: as §1

corn [3] = assay: Test A postemergence; format: in vivo, Zea mays
How it was run: as §1

pigweed, palmer [4] = assay: Test A preemergence; format: in vivo, Amaranthus palmeri
How it was run: as §1

foxtail, giant [5] = assay: Test A preemergence; format: in vivo, Setaria faberi
How it was run: as §1

kochia [6] = assay: Test A preemergence; format: in vivo, Bassia scoparia
How it was run: as §1

oat, wild [7] = assay: Test A postemergence; format: in vivo, Avena fatua
How it was run: as §1

sedge, umbrella = assay: Test B flooded paddy test; format: in vivo, Cyperus difformis; details: 250 g ai/ha, Flood, 13 days, 0 to 100 scale (0 no effect, 100 complete control)
How it was run: as §2

barnyardgrass = assay: Test B flooded paddy test; format: in vivo, Echinochloa crus-galli; details: 250 g ai/ha, Flood, 13 days, 0 to 100 scale (0 no effect, 100 complete control)
How it was run: as §2

ryegrass, Italian [8] = assay: Test A postemergence; format: in vivo, Lolium multiflorum
How it was run: as §1

blackgrass [9] = assay: Test A preemergence; format: in vivo, Alopecurus myosuroides
How it was run: as §1

ducksalad = assay: Test B flooded paddy test; format: in vivo, Heteranthera limosa; details: 250 g ai/ha, Flood, 13 days, 0 to 100 scale (0 no effect, 100 complete control)
How it was run: as §2

oat, wild [10] = assay: Test A preemergence; format: in vivo, Avena fatua
How it was run: as §1

wheat [11] = assay: Test A postemergence; format: in vivo, Triticum aestivum
How it was run: as §1

ragweed [12] = assay: Test A postemergence; format: in vivo, Ambrosia artemisiifolia
How it was run: as §1

soybean [13] = assay: Test A postemergence; format: in vivo, Glycine max
How it was run: as §1

foxtail, giant [14] = assay: Test A postemergence; format: in vivo, Setaria faberi
How it was run: as §1

galium = assay: Test A postemergence; format: in vivo, Galium aparine
How it was run: as §1

ragweed [15] = assay: Test A preemergence; format: in vivo, Ambrosia artemisiifolia
How it was run: as §1

horseweed = assay: Test A postemergence; format: in vivo, Erigeron canadensis
How it was run: as §1

goosegrass [16] = assay: Test A postemergence; format: in vivo, Eleusine indica
How it was run: as §1

goosegrass [17] = assay: Test A preemergence; format: in vivo, Eleusine indica
How it was run: as §1

blackgrass [18] = assay: Test A postemergence; format: in vivo, Alopecurus myosuroides
How it was run: as §1

soybean [19] = assay: Test A preemergence; format: in vivo, Glycine max
How it was run: as §1

kochia [20] = assay: Test A postemergence; format: in vivo, Bassia scoparia
How it was run: as §1

pigweed, palmer [21] = assay: Test A postemergence; format: in vivo, Amaranthus palmeri
How it was run: as §1

corn [22] = assay: Test A preemergence; format: in vivo, Zea mays
How it was run: as §1

[23] = 125 g ai/ha, visual injury after 10 days, 0 to 100 scale, 0 is no effect, 100 is complete control
[24] = 500 g ai/ha, 0 to 100 scale (0 no effect, 100 complete control), 10 days
[25] = 125 g ai/ha, postemergence, 10 days, visual injury, 0 to 100 scale (0 no effect, 100 complete control)
[26] = 500 g ai/ha, Postemergence, 0 to 100 scale
[27] = 125 g ai/ha, postemergence, 10 days, 0 to 100 scale, 0 no effect, 100 complete control
[28] = 500 g ai/ha, postemergence, 10 days, visual injury, 0 to 100 scale (0 no effect, 100 complete control)

Cc1cccc2c1O[C@@H](C)CN2C(=O)c1cc(-n2cncn2)ccc1F [Compound 50]
80: Plant response rating, Ryegrass, Italian (ryegrass, Italian [2]; [23]) | Plant response rating, Ryegrass, Italian (ryegrass, Italian [8]; [26]) | Plant response rating, Blackgrass (blackgrass [9]; [24])
90: Plant response rating, Ryegrass, Italian (ryegrass, Italian [2]; [24]) | Plant response rating, Foxtail, Giant (foxtail, giant [5]; [23]) | Plant response rating, Oat, Wild (oat, wild [10]; [24]) | Plant response rating, Foxtail, Giant (foxtail, giant [14]; [26]) | Plant response rating, Goosegrass (goosegrass [16]; [26]) | Plant response rating, Goosegrass (goosegrass [17]; [23]) | Plant response rating, Soybean (soybean [19]; [24])
40: Plant response rating, Blackgrass (blackgrass [9]; [23]) | Plant response rating, Wheat (wheat [11]; [25]) | Plant response rating, Ragweed (ragweed [12]; [26])
100: Plant response rating, Pigweed, Palmer (pigweed, palmer [4]; [24]) | Plant response rating, Foxtail, Giant (foxtail, giant [5]; [24]) | Plant response rating, Soybean (soybean [13]; [25]) | Plant response rating, Soybean (soybean [13]; [26]) | Plant response rating, Galium (galium; [26]) | Plant response rating, Goosegrass (goosegrass [17]; [24])
50: Plant response rating, Wheat (wheat [1]; [24]) | Plant response rating, Oat, Wild (oat, wild [7]; [26]) | Plant response rating, Ryegrass, Italian (ryegrass, Italian [8]; [25]) | Plant response rating, Goosegrass (goosegrass [16]; [25]) | Plant response rating, Blackgrass (blackgrass [18]; [25])
30: Plant response rating, Corn (corn [3]; [25]) | Plant response rating, Ragweed (ragweed [15]; [24]) | Plant response rating, Soybean (soybean [19]; [23]) | Plant response rating, Pigweed, Palmer (pigweed, palmer [21]; [25]) | Plant response rating, Pigweed, Palmer (pigweed, palmer [21]; [26])
60: Plant response rating, Corn (corn [3]; [26]) | Plant response rating, Galium (galium; [25])
20: Plant response rating, Oat, Wild (oat, wild [7]; [25]) | Plant response rating, Oat, Wild (oat, wild [10]; [23]) | Plant response rating, Ragweed (ragweed [12]; [25])
0: Plant response rating, Wheat (wheat [1]; [23]) | Plant response rating, Rice (rice) | Plant response rating, Pigweed, Palmer (pigweed, palmer [4]; [23]) | Plant response rating, Kochia (kochia [6]; [23]) | Plant response rating, Sedge, Umbrella (sedge, umbrella) | Plant response rating, Barnyardgrass (barnyardgrass) | Plant response rating, Ducksalad (ducksalad) | Plant response rating, Ragweed (ragweed [15]; [23]) | Plant response rating, Horseweed (horseweed; [25]) | Plant response rating, Corn (corn [22]; [23]) | Plant response rating, Corn (corn [22]; [24])
70: Plant response rating, Wheat (wheat [11]; [26]) | Plant response rating, Foxtail, Giant (foxtail, giant [14]; [25]) | Plant response rating, Blackgrass (blackgrass [18]; [26]) | Plant response rating, Kochia (kochia [20]; [26])
10: Plant response rating, Kochia (kochia [6]; [24]) | Plant response rating, Horseweed (horseweed; [26]) | Plant response rating, Kochia (kochia [20]; [25])

CC(C)Oc1ccc(-n2cnc(C(C)C)n2)cc1C(=O)N1C[C@H](C)Oc2c(Cl)cccc21 [Compound 108]
80: Plant response rating, Ryegrass, Italian (ryegrass, Italian [2]; [23]) | Plant response rating, Kochia (kochia [6]; [24]) | Plant response rating, Sedge, Umbrella (sedge, umbrella) | Galium plant response rating (galium; [27]) | Goosegrass plant response rating (goosegrass [16]; [27])
60: Plant response rating, Corn (corn [3]; [28]) | Ragweed plant response rating (ragweed [12]; [27]) | Plant response rating, Ragweed (ragweed [12]; [28])
20: Oat, Wild plant response rating (oat, wild [7]; [27]) | Ryegrass, Italian plant response rating (ryegrass, Italian [8]; [27]) | Plant response rating, Ducksalad (ducksalad) | Plant response rating, Horseweed (horseweed; [28])
0: Plant response rating, Kochia (kochia [6]; [23]) | Plant response rating, Blackgrass (blackgrass [9]; [23]) | Plant response rating, Corn (corn [22]; [23])
30: Plant response rating, Wheat (wheat [1]; [23]) | Plant response rating, Oat, Wild (oat, wild [10]; [23]) | Plant response rating, Oat, Wild (oat, wild [10]; [24]) | Plant response rating, Wheat (wheat [11]; [28]) | Plant response rating, Ragweed (ragweed [15]; [23]) | Blackgrass plant response rating (blackgrass [18]; [27]) | Plant response rating, Blackgrass (blackgrass [18]; [28]) | Plant response rating, Corn (corn [22]; [24])
70: Plant response rating, Oat, Wild (oat, wild [7]; [28]) | Foxtail, Giant plant response rating (foxtail, giant [14]; [27]) | Kochia plant response rating (kochia [20]; [27]) | Pigweed, Palmer plant response rating (pigweed, palmer [21]; [27]) | Plant response rating, Pigweed, Palmer (pigweed, palmer [21]; [28])
55: Plant response rating, Barnyardgrass (barnyardgrass)
10: Plant response rating, Rice (rice) | Wheat plant response rating (wheat [11]; [27]) | Horseweed plant response rating (horseweed; [27])
90: Plant response rating, Foxtail, Giant (foxtail, giant [5]; [23]) | Plant response rating, Foxtail, Giant (foxtail, giant [14]; [28]) | Plant response rating, Galium (galium; [28]) | Plant response rating, Ragweed (ragweed [15]; [24]) | Plant response rating, Goosegrass (goosegrass [16]; [28]) | Plant response rating, Kochia (kochia [20]; [28])
50: Plant response rating, Soybean (soybean [19]; [23])
100: Plant response rating, Ryegrass, Italian (ryegrass, Italian [2]; [24]) | Plant response rating, Pigweed, Palmer (pigweed, palmer [4]; [23]) | Plant response rating, Pigweed, Palmer (pigweed, palmer [4]; [24]) | Plant response rating, Foxtail, Giant (foxtail, giant [5]; [24]) | Soybean plant response rating (soybean [13]; [27]) | Plant response rating, Soybean (soybean [13]; [28]) | Plant response rating, Goosegrass (goosegrass [17]; [23]) | Plant response rating, Goosegrass (goosegrass [17]; [24]) | Plant response rating, Soybean (soybean [19]; [24])
40: Plant response rating, Wheat (wheat [1]; [24]) | Corn plant response rating (corn [3]; [27]) | Plant response rating, Ryegrass, Italian (ryegrass, Italian [8]; [28]) | Plant response rating, Blackgrass (blackgrass [9]; [24])
